Laboratory results reported in patent US20260232578A1, “COMPOSITIONS AND METHODS FOR TRANSMUCOSAL ABSORPTION” (Tonix Pharma Limited, priority 2012, published 2026).
Where “and” joins values, the source holds several entries; their conditions need not be identical. Equal values may be shown once. Read-outs that look alike come from different tables or passages of the source.

Tests used:
[1] = target: T1, adrenergic alpha-2B receptor (Alpha2B) (Homo sapiens, UniProt P18089); assay: Equilibrium receptor binding, recombinant human receptor
T1 construct: expressed in transfected cells

[2] = target: 5-HT6 (Homo sapiens, UniProt P50406); assay: Functional antagonism (Table 69)
[3] = target: T2, histamine H1 receptor (Homo sapiens, UniProt P35367); assay: G-protein-independent signal transduction, β-arrestin signaling; assay type: cell-based; settings: for IC50: H1, β-arrestin signaling, read-out: IC50, functional antagonist
T2 construct: expressed in transfected cells

[4] = target: T3, dopamine D1 receptor (Homo sapiens, UniProt P21728); assay: G-protein-dependent signal transduction (Ca2+ mobilization, cAMP production or inositol triphosphate turnover); assay type: cell-based; settings: for IC50: read-out: IC50 (nM) (Antagonist)
T3 construct: expressed in transfected cells

[5] = target: T4, adrenergic α1B receptor (Homo sapiens, UniProt P35368); assay: G-protein-independent signal transduction, β-arrestin signaling; assay type: cell-based; settings: for IC50: α1B, β-arrestin signaling, read-out: IC50, functional antagonist
T4 construct: expressed in transfected cells
T4 sequence (P35368 1-520): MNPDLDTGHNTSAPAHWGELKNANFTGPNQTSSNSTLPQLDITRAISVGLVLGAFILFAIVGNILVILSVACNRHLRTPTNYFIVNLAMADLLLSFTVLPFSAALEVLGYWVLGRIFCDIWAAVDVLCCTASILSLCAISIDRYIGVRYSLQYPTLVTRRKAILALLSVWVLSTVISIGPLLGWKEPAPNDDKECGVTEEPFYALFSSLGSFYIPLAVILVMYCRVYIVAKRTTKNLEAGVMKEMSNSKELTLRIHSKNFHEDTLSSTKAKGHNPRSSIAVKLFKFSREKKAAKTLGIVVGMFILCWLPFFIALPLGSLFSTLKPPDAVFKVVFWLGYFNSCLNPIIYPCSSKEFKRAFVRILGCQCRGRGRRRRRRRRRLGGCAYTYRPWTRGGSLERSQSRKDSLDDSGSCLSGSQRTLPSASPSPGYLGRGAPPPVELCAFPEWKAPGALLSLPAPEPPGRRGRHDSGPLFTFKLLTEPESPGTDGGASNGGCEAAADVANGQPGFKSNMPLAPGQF

[6] = target: T5, adrenergic alpha-2C receptor (Alpha2C) (Homo sapiens, UniProt P18825); assay: Equilibrium receptor binding, recombinant human receptor
T5 construct: expressed in transfected cells
T5 sequence (P18825 1-462): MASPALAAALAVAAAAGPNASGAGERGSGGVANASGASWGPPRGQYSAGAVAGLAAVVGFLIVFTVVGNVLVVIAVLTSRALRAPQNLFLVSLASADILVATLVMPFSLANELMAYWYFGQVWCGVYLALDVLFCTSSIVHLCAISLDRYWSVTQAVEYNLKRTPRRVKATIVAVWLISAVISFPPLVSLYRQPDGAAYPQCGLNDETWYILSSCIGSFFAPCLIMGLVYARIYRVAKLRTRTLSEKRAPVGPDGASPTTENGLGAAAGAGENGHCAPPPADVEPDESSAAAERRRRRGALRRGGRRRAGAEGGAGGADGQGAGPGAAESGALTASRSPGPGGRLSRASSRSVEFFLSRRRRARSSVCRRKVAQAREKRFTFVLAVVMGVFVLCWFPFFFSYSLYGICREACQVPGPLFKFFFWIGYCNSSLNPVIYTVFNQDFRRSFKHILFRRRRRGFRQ

[7] = target: T6, adrenergic α1A receptor (Alpha1A) (Homo sapiens, UniProt P35348); assay: as above; settings: for Ki: Alpha1A
T6 construct: expressed in transfected cells
T6 sequence (P35348 1-466): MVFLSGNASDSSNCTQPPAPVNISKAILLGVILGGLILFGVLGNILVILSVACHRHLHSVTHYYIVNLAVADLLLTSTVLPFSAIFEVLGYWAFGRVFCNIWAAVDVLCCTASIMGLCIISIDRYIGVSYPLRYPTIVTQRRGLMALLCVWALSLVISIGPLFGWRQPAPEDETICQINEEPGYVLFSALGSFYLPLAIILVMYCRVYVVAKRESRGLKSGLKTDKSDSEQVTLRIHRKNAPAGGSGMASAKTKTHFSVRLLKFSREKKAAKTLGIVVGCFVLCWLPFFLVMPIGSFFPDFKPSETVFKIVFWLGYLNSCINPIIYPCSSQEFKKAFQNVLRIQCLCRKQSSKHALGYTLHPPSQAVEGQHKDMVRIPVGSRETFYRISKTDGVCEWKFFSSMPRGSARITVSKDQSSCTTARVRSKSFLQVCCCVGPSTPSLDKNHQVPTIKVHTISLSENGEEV

[8] = target: T7, 5-HT1A receptor (Homo sapiens, UniProt P08908); assay: G-protein-dependent signal transduction (functional agonism); assay type: cell-based
T7 construct: expressed in transfected cells
T7 sequence (P08908 1-422): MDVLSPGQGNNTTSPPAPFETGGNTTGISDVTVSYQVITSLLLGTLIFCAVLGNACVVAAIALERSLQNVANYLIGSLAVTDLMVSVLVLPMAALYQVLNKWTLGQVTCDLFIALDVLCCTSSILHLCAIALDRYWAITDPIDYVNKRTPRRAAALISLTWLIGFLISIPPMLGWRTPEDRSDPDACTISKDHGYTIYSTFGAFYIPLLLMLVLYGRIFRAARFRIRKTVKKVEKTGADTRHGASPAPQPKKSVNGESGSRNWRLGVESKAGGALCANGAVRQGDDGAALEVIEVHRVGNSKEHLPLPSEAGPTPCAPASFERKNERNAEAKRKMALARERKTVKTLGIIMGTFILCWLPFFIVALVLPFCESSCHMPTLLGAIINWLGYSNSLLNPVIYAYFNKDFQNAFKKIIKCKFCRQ
Description: Quantitation was based on peak area ratio of the analytes versus their stable labeled internal standards. A weighted (1/C2), linear regression was performed to determine the concentration of the analytes. All regressions and figures presented in this validation report were generated by MDS Sciex Analyst version 1.4.2 and Thermo Electron Corporation Watson LIMS software, version 7.0.0.01b. […] Select receptors were analyzed in ligand-induced intracellular calcium mobilization.

[9] = read-out: EC50, functional agonist

T2 sequence (P35367 whole entry): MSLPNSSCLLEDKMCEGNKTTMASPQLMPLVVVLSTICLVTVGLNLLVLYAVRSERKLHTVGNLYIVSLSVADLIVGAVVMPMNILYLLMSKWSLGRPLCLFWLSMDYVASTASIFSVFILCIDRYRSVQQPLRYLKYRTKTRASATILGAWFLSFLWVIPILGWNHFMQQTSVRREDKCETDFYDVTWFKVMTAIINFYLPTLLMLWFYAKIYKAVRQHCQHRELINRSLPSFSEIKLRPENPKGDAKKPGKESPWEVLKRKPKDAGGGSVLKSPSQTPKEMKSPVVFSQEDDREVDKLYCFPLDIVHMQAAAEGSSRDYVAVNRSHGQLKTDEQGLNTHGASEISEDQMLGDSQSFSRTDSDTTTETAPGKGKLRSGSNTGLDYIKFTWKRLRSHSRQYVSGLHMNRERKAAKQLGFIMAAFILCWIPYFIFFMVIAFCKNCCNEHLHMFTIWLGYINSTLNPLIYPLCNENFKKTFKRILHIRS
T3 sequence (P21728 whole entry): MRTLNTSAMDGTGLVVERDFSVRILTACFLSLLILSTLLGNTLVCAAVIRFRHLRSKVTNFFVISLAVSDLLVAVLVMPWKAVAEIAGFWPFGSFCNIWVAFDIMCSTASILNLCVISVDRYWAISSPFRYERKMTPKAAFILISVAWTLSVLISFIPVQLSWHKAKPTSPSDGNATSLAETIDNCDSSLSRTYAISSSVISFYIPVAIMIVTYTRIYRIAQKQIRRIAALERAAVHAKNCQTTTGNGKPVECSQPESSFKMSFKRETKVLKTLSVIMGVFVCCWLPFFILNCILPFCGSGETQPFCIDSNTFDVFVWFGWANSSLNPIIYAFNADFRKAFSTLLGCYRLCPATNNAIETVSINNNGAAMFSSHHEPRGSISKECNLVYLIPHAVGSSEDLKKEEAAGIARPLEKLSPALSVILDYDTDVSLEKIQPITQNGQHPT
T1 sequence (P18089 whole entry): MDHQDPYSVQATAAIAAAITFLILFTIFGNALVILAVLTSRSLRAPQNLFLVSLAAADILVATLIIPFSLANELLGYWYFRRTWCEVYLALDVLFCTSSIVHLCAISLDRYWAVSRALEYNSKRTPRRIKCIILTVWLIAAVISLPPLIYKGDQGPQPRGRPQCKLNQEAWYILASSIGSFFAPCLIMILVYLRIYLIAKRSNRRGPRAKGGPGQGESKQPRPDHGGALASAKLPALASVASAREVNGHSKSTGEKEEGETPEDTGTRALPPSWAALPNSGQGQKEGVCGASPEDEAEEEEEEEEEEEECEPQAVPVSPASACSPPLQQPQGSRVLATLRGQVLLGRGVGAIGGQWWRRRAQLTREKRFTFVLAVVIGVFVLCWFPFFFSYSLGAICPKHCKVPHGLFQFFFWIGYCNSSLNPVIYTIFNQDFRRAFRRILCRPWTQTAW
Chain of 5-HT6 (P50406 whole entry): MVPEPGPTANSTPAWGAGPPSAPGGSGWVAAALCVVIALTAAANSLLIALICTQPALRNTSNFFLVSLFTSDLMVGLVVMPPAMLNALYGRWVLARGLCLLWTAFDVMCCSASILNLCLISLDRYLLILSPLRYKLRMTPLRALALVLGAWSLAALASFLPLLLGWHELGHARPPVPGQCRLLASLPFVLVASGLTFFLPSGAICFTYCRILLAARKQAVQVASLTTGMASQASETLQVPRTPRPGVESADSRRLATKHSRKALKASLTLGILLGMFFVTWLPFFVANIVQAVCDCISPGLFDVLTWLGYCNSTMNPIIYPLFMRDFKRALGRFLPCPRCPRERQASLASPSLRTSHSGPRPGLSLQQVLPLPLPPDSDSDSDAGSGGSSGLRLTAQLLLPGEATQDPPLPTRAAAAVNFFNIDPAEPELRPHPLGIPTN

Structure (SMILES) | Ki [1] [nM] | IC50 [2] [nM] | Four parameter Hill slope (or fit slope) ratio; β-arrestin signaling ([3]; H1) | IC50 [3] [nM] | Four parameter Hill slope (or fit slope) ratio; Ca2+ signaling [4] | IC50 [4] [nM] | IC50 [5] [nM] | Four parameter Hill slope (or fit slope) ratio; β-arrestin signaling ([5]; α-1B) | Ki [6] | Ki [7] [nM] | Hill plot ratio (Hill slope) ([7]; equilibrium binding, α-1A) | Four parameter Hill slope (or fit slope) ratio; Ca2+ signaling [8] | EC50 [8, 9] [nM] | IC50 ([8]; read-out: IC50 (nM) (Antagonist)) | EC50 ([8]; read-out: EC50 (nM) (Agonist))
CNCCC=C1c2ccccc2C=Cc2ccccc21 [norcyclobenzaprine, 3-(5H-dibenzo[a,d]cyclohepten-5-ylidene)-N-methyl-1-propanamine] | 150 | 2800 | 1.09 | 6.1 | 0.98 | 300 | 173 | 0.70 | 48 nM | 34 | 1.16 | −0.79 | 3200 | 5300 | 
CN(C)CCC=C1c2ccccc2C=Cc2ccccc21 [cyclobenzaprine, 3-(5H-dibenzo[a,d]cyclohepten-5-ylidene)-N,N-dimethyl-1-propanamine] | 21 | 2000 |  | 2.7 |  | 65 | 144 |  | 21 nM and 25 nM | 5.6 |  |  | 5300 |  | 3200
